These results are taken from patent US7250434B2, “CCK-1 receptor modulators” (Janssen Pharmaceutica N.V., priority 2003, dated 2007).

The experiment has as its target T1, CCK-1 receptor (Homo sapiens, UniProt P32238).
T1 construct: expressed in transfected cells; membranes
T1 sequence (P32238 1-428): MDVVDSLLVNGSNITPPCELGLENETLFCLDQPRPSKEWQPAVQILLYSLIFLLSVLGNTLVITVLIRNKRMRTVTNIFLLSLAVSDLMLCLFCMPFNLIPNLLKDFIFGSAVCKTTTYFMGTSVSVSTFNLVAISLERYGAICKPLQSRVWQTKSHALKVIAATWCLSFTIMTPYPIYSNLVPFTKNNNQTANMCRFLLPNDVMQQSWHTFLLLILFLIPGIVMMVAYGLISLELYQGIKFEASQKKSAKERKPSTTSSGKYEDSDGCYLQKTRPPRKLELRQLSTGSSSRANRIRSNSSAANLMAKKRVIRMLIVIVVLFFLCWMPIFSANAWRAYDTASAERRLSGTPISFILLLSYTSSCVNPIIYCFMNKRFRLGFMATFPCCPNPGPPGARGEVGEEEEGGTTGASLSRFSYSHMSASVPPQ
Nature of the experiment: [125I]-BH-CCK-8S competition binding to membranes of CHO-K1 cells stably transfected with the CCK-1 receptor. The settings on record: membranes of CCK-1 transfected CHO-K1 cells; 20 pM [125I]-BH-CCK-8S; 0.3 μM PD-134,308 present; 60 min at 21±3° C.; Cheng-Prusoff. The method, then:
CHO-K1 cells that had undergone stable transfection with the CCK-1 receptor were grown in DMEM supplemented with L-glutamine (2 mM), penicillin (50 units/mL) and streptomycin (50 μg/mL). Cells were cultured under continuous G418 selection (2 mM) and were harvested using a rubber cell scraper. CHO-K1 cells were sub-cultured a maximum of ten times before being reseeded from the original stocks.
Membranes were prepared from the stably transfected CHO-K1 cells. Frozen cell pellets (−40° C.) were thawed in 14 mL of buffer A (10 mM HEPES, 130 mM NaCl, 4.7 mM KCl, 5 mM MgCl, 1 mM EGTA and 15.4 mg/100 mL bacitracin at pH 7.2), adapted from Harper et al. (Br. J. Pharmacol. 1996, 118:1717-1726). The thawed pellets were homogenized using a Polytron PT-10 (7×1 s). The homogenates were centrifuged for 5 min at 1500 rpm (600×g), and the resulting pellets were discarded. The supernatants were re-centrifuged in order to collect the receptor-membrane pellets (25 min 15,000 rpm; 39,800×g), which were re-suspended in buffer A.
All assays were conducted in 96-well plates (GF/B millipore filter plates) using buffer A, with 0.3 μM PD-134,308, for the dilutions. The CCK-2 receptor ligand was included to eliminate the contribution of this receptor subtype to the binding. For the optimal cell number determination experiments 20 pM [^125I]-BH-CCK-8S (50 μL 60 pM solution) was incubated with a range of cell concentrations (2.5×105 to 12.5×10^5 cells/well) in a total volume of 150 μL. Total binding of [^125I]-BH-CCK-8S was determined in the presence of 15 μL of buffer A. Non-specific binding of [^125I]-BH-CCK-8S was determined in the presence of 15 μL of 100 μM 2-naphthalenesulphonyl L-aspartyl-(2-phenethyl)amide (2-NAP: see R. A. Hull et al. Br. J. Pharmacol. 1993, 108:734-740), a CCK-1 receptor selective antagonist that is structurally unrelated to the radioligand [^125I]-BH-CCK-8S. The assay preparation was incubated for 1 h at 21±3° C., and then the assay was terminated upon rapid filtration of the preparation under reduced pressure. The loaded filters were washed three times using undiluted PBS (100 μL), and then the residues were transferred to 5 mL scintillation tubes. Bound radioactivity was determined using a gamma counter (count time=1 min). From these experiments a cell concentration of 1 pellet in 40 mL of buffer (2.5×10^6 cells/mL) was chosen for use in other assays (below). To validate the radioligand concentration and incubation time for the assay, saturation and kinetic binding studies were also conducted (see M. F. Morton, The Pharmacological Characterization of Cholecystokinin Receptors in the Human Gastrointestinal Tract. PhD Thesis, University of London, 2000). The affinity of novel compounds was estimated by incubating membrane preparations with 15 μL of competing ligand (0.1 pM-1 mM) for 60 min at 21±3° C. The assay was then terminated according to the procedure outlined above.
The pKi values were determined using the equation of Y.-C. Cheng and W. H. Prusoff (Biochem. Pharmacol. 1973, 22(23):3099-3108):
[formula] To circumvent problems associated with computer-assisted data analysis of compounds with low affinity, the data obtained in the current study were weighted according to a method described by Morton (2000). In brief, 100% and 0% specific binding were defined independently using total binding and binding obtained in the presence of a high concentration of the reference antagonist, 2-NAP.
In the case of `COc1ccc(-c2[nH]c(/C=C(/C(=O)O)c3cccc(C)c3)nc2-c2ccc(Cl)c(Cl)c2)cc1` [Example 17, (E)-3-[4-(3,4-Dichloro-phenyl)-5-(4-methoxy-phenyl)-1H-imidazol-2-yl]-2-m-tolyl-acrylic acid], the Ki (as a rule, the dissociation constant of the complex between target and ligand, obtained from inhibition or displacement) was 79.4 nM.
`O=C(O)/C(=C\c1nc(-c2cc(Cl)ccc2Cl)c(-c2ccc3c(c2)OCO3)[nH]1)c1cccc(Cl)c1` [Example 1, (Z)-3-[5-Benzo[1,3]dioxol-5-yl-4-(2,5-dichloro-phenyl)-1H-imidazol-2-yl]-2-(3-chloro-phenyl)-acrylic acid]: the Ki was 2 nM.
The same measure for `O=C(O)/C(=C\c1nc(-c2cc(Cl)ccc2Cl)c(-c2ccc3c(c2)OCO3)[nH]1)c1cccc2ccccc12` [Example 4, (Z)-3-[5-Benzo[1,3]dioxol-5-yl-4-(2,5-dichloro-phenyl)-1H-imidazol-2-yl]-2-naphthalen-1-yl-acrylic acid]: 2.51 nM; for `O=C(O)/C(=C/c1nc(-c2cc(Cl)ccc2Cl)c(-c2ccc3c(c2)OCO3)[nH]1)c1ccc(Cl)cc1` [Example 20, (E)-3-[5-Benzo[1,3]dioxol-5-yl-4-(2,5-dichloro-phenyl)-1H-imidazol-2-yl]-2-(4-chloro-phenyl)-acrylic acid]: 15.8 nM.
`COc1ccc(-c2[nH]c(/C=C(/C(=O)O)c3ccc(Cl)cc3)nc2-c2ccc(Cl)c(Cl)c2)cc1` [Example 15, (E)-2-(4-Chloro-phenyl)-3-[4-(3,4-dichloro-phenyl)-5-(4-methoxy-phenyl)-1H-imidazol-2-yl]-acrylic acid] had an inhibition constant (Ki) of 79.4 nM.
`O=C(O)/C(=C/c1nc(-c2cc(Cl)ccc2Cl)c(-c2ccc3c(c2)OCO3)[nH]1)c1cccc(Cl)c1` [Example 2, (E)-3-[5-Benzo[1,3]dioxol-5-yl-4-(2,5-dichloro-phenyl)-1H-imidazol-2-yl]-2-(3-chloro-phenyl)-acrylic acid] had a Ki of 3.16 nM.
As to `Cc1cccc(/C(=C/c2nc(-c3cc(Cl)ccc3Cl)c(-c3ccc4c(c3)OCO4)[nH]2)C(=O)O)c1` [Example 3, (Z)-3-[5-Benzo[1,3]dioxol-5-yl-4-(2,5-dichloro-phenyl)-1H-imidazol-2-yl]-2-m-tolyl-acrylic acid], the Ki is 2 nM.
For `COc1ccc(-c2[nH]c(/C=C(/C(=O)O)c3cccc4ccccc34)nc2-c2ccc(Cl)c(Cl)c2)cc1` [Example 13, (E)-3-[4-(3,4-Dichloro-phenyl)-5-(4-methoxy-phenyl)-1H-imidazol-2-yl]-2-naphthalen-1-yl-acrylic acid], the affinity, expressed as Ki, was 200 nM.
With `Cc1ccc(-c2nc(CC(C(=O)O)c3cccc(C)c3)[nH]c2-c2ccc(C)cc2)cc1` (centres unmarked) [Example 30, 3-(4,5-Di-p-tolyl-1H-imidazol-2-yl)-2-m-tolyl-propionic acid], the inhibition constant (Ki) is 20 nM.
`COc1ccc(-c2[nH]c(/C=C(\C(=O)O)c3ccc(C)cc3)nc2-c2ccc(Cl)c(Cl)c2)cc1` [Example 11, (Z)-3-[4-(3,4-Dichloro-phenyl)-5-(4-methoxy-phenyl)-1H-imidazol-2-yl]-2-p-tolyl-acrylic acid]: the inhibitory constant (Ki) was 10 nM.
Compound `COc1ccc(-c2[nH]c(/C=C(\C(=O)O)c3cccc(Cl)c3)nc2-c2ccc(Cl)c(Cl)c2)cc1` [Example 8, (Z)-2-(3-Chloro-phenyl)-3-[4-(3,4-dichloro-phenyl)-5-(4-methoxy-phenyl)-1H-imidazol-2-yl]-acrylic acid] showed an inhibitory constant (Ki) of 5.01 nM.
The same measure for `COc1ccc(-c2[nH]c(CC(C(=O)O)c3cccc(C)c3)nc2-c2ccc(Cl)c(Cl)c2)cc1` (centres unmarked) [Example 24, 3-[4-(3,4-Dichloro-phenyl)-5-(4-methoxy-phenyl)-1H-imidazol-2-yl]-2-m-tolyl-propionic acid]: 31.6 nM.
Take `O=C(O)/C(=C/c1nc(-c2cc(Cl)ccc2Cl)c(-c2ccc3c(c2)OCO3)[nH]1)c1cccc(C(F)(F)F)c1` [Example 21, (E)-3-[5-Benzo[1,3]dioxol-5-yl-4-(2,5-dichloro-phenyl)-1H-imidazol-2-yl]-2-(3-trifluoromethyl-phenyl)-acrylic acid]: the Ki was 20 nM.
For the compound `O=C(O)C(Cc1nc(-c2ccc(F)cc2)c(-c2ccc(F)cc2)[nH]1)c1cccc2ccccc12` (centres unmarked) [Example 34, 3-[4,5-Bis-(4-fluoro-phenyl)-1H-imidazol-2-yl]-2-naphthalen-1-yl-propionic acid], the affinity, expressed as Ki, was 10000 nM.
Consider `COc1ccc(-c2[nH]c(CC(C(=O)O)c3ccc(Cl)cc3)nc2-c2ccc(Cl)c(Cl)c2)cc1` (centres unmarked) [Example 28, 2-(4-Chloro-phenyl)-3-[4-(3,4-dichloro-phenyl)-5-(4-methoxy-phenyl)-1H-imidazol-2-yl]-propionic acid], for which the Ki is 63.1 nM.
In the case of `COc1ccc(-c2[nH]c(/C=C(\C(=O)O)c3cccc(C(F)(F)F)c3)nc2-c2ccc(Cl)c(Cl)c2)cc1` [Example 10, (Z)-3-[4-(3,4-Dichloro-phenyl)-5-(4-methoxy-phenyl)-1H-imidazol-2-yl]-2-(3-trifluoromethyl-phenyl)-acrylic acid], the Ki is 10 nM.
`O=C(O)/C(=C/c1nc(-c2cc(Cl)ccc2Cl)c(-c2ccc3c(c2)OCO3)[nH]1)c1cccc2ccccc12` [Example 23, (E)-3-[5-Benzo[1,3]dioxol-5-yl-4-(2,5-dichloro-phenyl)-1H-imidazol-2-yl]-2-naphthalen-1-yl-acrylic acid] showed a Ki of 79.4 nM.
The same measure for `COc1ccc(-c2[nH]c(CC(C(=O)O)c3cccc(Cl)c3)nc2-c2ccc(Cl)c(Cl)c2)cc1` (centres unmarked) [Example 25, 2-(3-Chloro-phenyl)-3-[4-(3,4-dichloro-phenyl)-5-(4-methoxy-phenyl)-1H-imidazol-2-yl]-propionic acid]: 31.6 nM; for `COc1ccc(-c2[nH]c(CC(C(=O)O)c3ccc(C)cc3)nc2-c2ccc(Cl)c(Cl)c2)cc1` (centres unmarked) [Example 29, 3-[4-(3,4-Dichloro-phenyl)-5-(4-methoxy-phenyl)-1H-imidazol-2-yl]-2-p-tolyl-propionic acid]: 126 nM.
In turn, `O=C(O)/C(=C\c1nc(-c2cc(Cl)ccc2Cl)c(-c2ccc3c(c2)OCO3)[nH]1)c1cccc(C(F)(F)F)c1` [Example 7, (Z)-3-[5-Benzo[1,3]dioxol-5-yl-4-(2,5-dichloro-phenyl)-1H-imidazol-2-yl]-2-(3-trifluoromethyl-phenyl)-acrylic acid] had a Ki of 5.01 nM.
Regarding `COc1ccc(-c2[nH]c(/C=C(/C(=O)O)c3cccc(Cl)c3)nc2-c2ccc(Cl)c(Cl)c2)cc1` [Example 18, (E)-2-(3-Chloro-phenyl)-3-[4-(3,4-dichloro-phenyl)-5-(4-methoxy-phenyl)-1H-imidazol-2-yl]-acrylic acid], the Ki was 63.1 nM.
The compound `O=C(O)/C(=C\c1nc(-c2ccccn2)c(-c2ccc3ccccc3c2)[nH]1)c1cccc(Cl)c1` [Example 12, (Z)-2-(3-Chloro-phenyl)-3-(5-naphthalen-2-yl-4-pyridin-2-yl-1H-imidazol-2-yl)-acrylic acid] gave a Ki of 5.01 nM.
The same measure for `O=C(O)/C(=C\c1nc(-c2cc(Cl)ccc2Cl)c(-c2ccc3c(c2)OCO3)[nH]1)c1ccc(Cl)cc1` [Example 5, (Z)-3-[5-Benzo[1,3]dioxol-5-yl-4-(2,5-dichloro-phenyl)-1H-imidazol-2-yl]-2-(4-chloro-phenyl)-acrylic acid]: 3.16 nM.
